Experimental data taken from patent US20260007679A1, “METHODS OF TREATING CANCER USING 3-(4-((4-(MORPHOLINOMETHYL)BENZYL)OXY)-1-OXOISOINDOLIN-2-YL)PIPERIDINE-2,6-DIONE” (Celgene Corporation, priority 2012, published 2026).
pIC50: −log10 of the molar value. Read-outs that look alike come from different tables or passages of the source.

Experiments:
[1] = tested on: Human umbilical vascular endothelial cells; experiment: Growth factor-induced HUVEC tube formation assay; format: cell-based; details: for VEGF-induced HUVEC tube formation (tube length and tube area): VEGF 25 ng/mL
Method: Human Umbilical Vascular Endothelial Cell Tube Formation Assay: Compounds were tested in the growth factor-induced HUVEC tube formation assay. The tube formation plates were incubated at 37° C. for 30 minutes for matrigel to polymerize. The HUVECs were starved in 0.1% BSA basal EBM2 medium for 5 hours after washing with the same medium 3 times. The cells were trypsinized and centrifuged. Then 25 μL of 4× serially diluted compounds (10, 1, 0.1, 0.01, 0.001, 0.0001, 0.00001 μM) were added in duplicate with 50 μL of 2×10^4 cells/well to tube formation plates coated with matrigel. […] of 4×VEGF (final concentration=25 ng/mL) or bFGF (final concentration=10 ng/mL) were added to the plates. The cells were then incubated overnight (˜18 hours) at 37° C. in a humidified incubator. The tubule webs were stained with calcein AM at 4 g/L in 2% FBS/IBSS for 30 minutes and images taken by fluorescence microscopy. The tubules were quantified by the MetaMorph tube formation software program for tube area and tube length.
(§1) The percentage inhibition of cell proliferation, tube formation, migration, and invasion was calculated by subtracting the result for unstimulated DMSO control from test sample results, averaging all replicates, and normalizing to the growth factor-stimulated DMSO control (0% inhibition). The IC50 values were calculated by using GraphPad Prism 5.0.

[2] = tested on: NCI-H929 Multiple Myeloma xenograft; experiment: NCI-H929 Multiple Myeloma xenograft model; format: in vivo, mouse; details: for H929 tumor growth: mouse, in vivo; for tumor growth inhibition: day 19
Method: Compounds I, I-R, and I-S were tested in NCI-H929 Multiple Myeloma xenograft model, and the results are depicted in FIG. 24.

[3] = tested on: megakaryocyte progenitor cells (normal human bone marrows); experiment: Megakaryocyte colony formation assay; format: cell-based; details: for pIC50: Homo sapiens, 14-16 days
Method: Colony formation assay was conducted with normal human bone marrows treated in semi-solid collagen matrix with compound/IL-3/IL-6/Tpo for 14-16 days, and the results are summarized in Table 7.

[4] = tested on: U87 Glioblastoma xenograft; experiment: U87 Glioblastoma xenograft model; format: in vivo, mouse; details: for U87 tumor growth: 30 mg/kg qd
Method: Compounds I, I-R, and I-S were tested in U87 Glioblastoma xenograft model, and the results are depicted in FIG. 25.

[5] = tested on: Human umbilical vascular endothelial cells; experiment: Growth factor-induced HUVEC invasion assay; format: cell-based; details: for pIC50: Homo sapiens; for VEGF-, bFGF-, and HGF-induced HUVEC invasion: dose-dependent
Method: Human Umbilical Vascular Endothelial Cell Invasion Assay: In the HUVEC invasion assay, the concentration of human fibronectin is optimized to provide a suitable protein structure for adherent cells to attach to the membrane and allow free migration in response to an angiogenic stimulus (e.g. VEGF, bFGF, or HGF) in the lower chamber of the insert plate. HUVECs were starved in 0.1% BSA EBM2 medium for 6 hours after washing with the same medium 3 times. The cells were then trypsinized and centrifuged to remove the remaining trypsin. Then ˜0.5 to 1×10^6 cells in 125 μL/well and 125 μL of 8× serially diluted compounds (10, 1, 0.1, 0.01, 0.001 μM) were added to the upper chamber of the BD Falcon 24-well and 96-well insert plates in duplicate and incubated for ˜1 to 2 hours. (The plates contain a fluorescence blocking, microporous [3.0 μm pore size] PET membrane that has been evenly coated with human fibronectin.) Seven hundred fifty microliters of a 1.33× stock solution of VEGF (final concentration of 25 ng/mL), bFGF (final concentration of 10 ng/mL), or HGF (final concentration of 25 ng/mL) were then added to the lower chamber. The cells were incubated for 22±1 hours at 37° C. The migrated cells were stained with calcein AM at 4 μg/mL in HBSS containing 2% FBS, using 500 µL/well in 24-well plates and 200 µL/well in 96-well plates. The plates were incubated at 37° C. for 90 minutes and read in a fluorescence plate reader.
as §1

[6] = tested on: NK cells; experiment: NK IgG-induced IFN-γ assay; format: cell-based, human; details: immobilized IgG and IL-2 stimulation; 7 donors
Excerpt: NK cells from healthy donors were isolated from buffy coat blood by negative selection using the RosetteSep NK cell enrichment cocktail (Stem Cell Technologies, Vancouver, BC) prior to Ficoll-Hypaque (Fisher Scientific Co LLC, PA) density gradient centrifugation following the manufacturers' instructions. CD56+NK cells were isolated to ˜85% purity, as determined by flow cytometry (BD Biosciences, CA).
NK IgG-induced Interferon-Gamma (IFN-γ) Assay: Ninety-six-well flat-bottom plates were coated with 100 µg/mL of human IgG (Sigma) overnight at 4° C. The next day, unbound IgG was washed away with cold 1×PBS. NK cells were then plated in the IgG-coated 96-well plates at 2×10^5 cells per well in 180 μL RPMI-1640 Media and 10 ng/mL of rhIL-2 (R & D Systems, MN) was added. Test compounds were added in a volume of 20 μL DMSO. Final concentrations of test compounds were […]. Final DMSO concentrations were […]. After 48 hours, the supernatants were harvested and analyzed by ELISA for IFN-γ production.
Data used to determine the test compounds to enhance NK cell IFN-γ production in response to immobilized IgG and rhIL-2 stimulation was analyzed for each donor using GraphPad Prism v5.0 software.

[7] = tested on: human umbilical artery; experiment: Human umbilical artery assay; format: cell-based
Method: Compounds I, I-R, and I-S were tested in various angiogenesis inhibition assays.

[8] = tested on: WSU-DLCL2 cell line; experiment: Cell cycle analysis; format: cell-based
Method: (§2) Cell Cycle Analysis: Cells were treated with DMSO or an amount of a compound provided herein for 48 hours. Propidium iodide staining for cell cycle was performed using CycleTEST PLUS (Becton Dickinson) according to manufacturer's protocol. Following staining, cells were analyzed by a FACSCalibur flow cytometer using ModFit LT software (Becton Dickinson).

[9] = tested on: DoHH2 cell line; experiment: Cell cycle analysis; format: cell-based
Method: as §2

[10] = Bone Marrow ID 0090128, read-out: Immature Colony IC50
[11] = Bone Marrow ID 0090128, read-out: Intermediate Colony IC50
[12] = Bone Marrow ID 0090616, read-out: Immature Colony IC50
[13] = Bone Marrow ID 0090616, read-out: Intermediate Colony IC50
[14] = Bone Marrow ID 0090714, read-out: Immature Colony IC50
[15] = Bone Marrow ID 0090714, read-out: Intermediate Colony IC50
[16] = Endothelial cell, read-out: HGF-induced invasion IC50 Values
[17] = Endothelial cell, read-out: VEGF-induced invasion IC50 Values
[18] = Endothelial cell, read-out: bFGF-induced invasion IC50 Values
[19] = HUVEC, read-out: IC50, HUVEC invasion (growth factor not given)
[20] = HUVEC, read-out: IC50 for inhibition of VEGF induced HUVEC invasion

Row | Structure (SMILES) | VEGF-induced HUVEC tube formation (tube length and tube area) [1] | H929 tumor growth [2] | pIC50 [3, 10] | pIC50 [3, 11] | pIC50 [3, 12] | pIC50 [3, 13] | pIC50 [3, 14] | pIC50 [3, 15] | U87 tumor growth [4] | tumor growth inhibition ([4]; 30 mg/kg, day 48) | pIC50 [5, 16] | pIC50 [5, 17] | pIC50 [5, 18] | pIC50 [5, 19] | pIC50 [5, 20] | VEGF-, bFGF-, and HGF-induced HUVEC invasion [5] | NK cell IFN-γ production [6] | also measured
1 | O=C1CCC(N2Cc3c(OCc4ccc(CN5CCOCC5)cc4)cccc3C2=O)C(=O)N1 (racemic) [Compound I, 3-(4-((4-(morpholinomethyl)benzyl)oxy)-1-oxoisoindolin-2-yl)piperidine-2,6-dione] | trend toward inhibiting | significantly inhibited H929 tumor growth in a dose-dependent manner | 6.00 to 7.00 | < 5.00 | 7.22 | < 5.00 | 7.30 | < 5.00 | significantly inhibited U87 tumor growth | > 80% | 6.23 | 9.85 | 9.38 | 9.40 | > 9.52 | significantly inhibited |  | 
2 | O=C1CC[C@@H](N2Cc3c(OCc4ccc(CN5CCOCC5)cc4)cccc3C2=O)C(=O)N1 [Compound I-R, (R)-3-(4-((4-(morpholinomethyl)benzyl)oxy)-1-oxoisoindolin-2-yl)piperidine-2,6-dione] | trend toward inhibiting |  | 5.00 | < 5.00 | 6.40 | < 5.00 | 6.40 | < 5.00 |  |  | 6.35 | > 10.00 | 7.89 | 7.89 | > 9.52 | significantly inhibited | slightly more active than compound I | inhibition of tube area and length ([1]; VEGF-induced, 10 μM, p<0.05 vs stimulated DMSO control): significant inhibition
3 | O=C1CC[C@H](N2Cc3c(OCc4ccc(CN5CCOCC5)cc4)cccc3C2=O)C(=O)N1 [Compound I-S, (S)-3-(4-((4-(morpholinomethyl)benzyl)oxy)-1-oxoisoindolin-2-yl)piperidine-2,6-dione] | trend toward inhibiting | significantly inhibited H929 tumor growth in a dose-dependent manner | 7.10 | 5.04 | 7.40 | 6.19 | 7.30 | 6.07 | significantly inhibited U87 tumor growth | about 60% | 7.72 | > 10.00 | > 10.00 | > 10.00 | > 9.52 | significantly inhibited | slightly more active than compound I | pIC50 [7]: 7.28; cell cycle effect [8]: induced G1 arrest; cell cycle effect [9]: induced G1 arrest; tumor growth inhibition ([2]; 0.3 mg/kg): 34%; tumor growth inhibition ([2]; 3 mg/kg): 67%; tumor growth inhibition ([2]; 30 mg/kg): 87%; effect on megakaryocyte progenitor cells [3]: inhibited megakaryocyte progenitor cells; tumor growth inhibition ([4]; 15 mg/kg, day 43, another study): about 47%
